Data taken from patent publication US5922871A, “Terephthalamide derivatives” (Dongwha Pharmaceutical Ind. Co., Ltd., priority 1997, dated 1999).

Tests used:
[1] = molecular target: T1, HBV polymerase reverse transcriptase (HBV-RT) (Hepatitis B virus genotype D subtype ayw, UniProt P03156); assay: inhibitory activity against HBV polymerase in vitro (reverse transcriptase activity); assay type: biochemical; settings: read-out: Inhibitory effect of HBV-RT; for inhibition at 0.1 µg/mL: 0.1 μg/ml; for inhibition at 1 µg/mL: 1 μg/ml
T1 construct: made in house; host or cells: E. coli
Description: Experiment 1: The inhibitory activity against HBV polymerase in vitro.
Recently, the inventors of the present invention have produced a recombinant HBV polymerase that is expressed from E.coli transformant, measured its enzyme activity and filed patent applications thereof [Korean Patent Application Nos. 94-3918, 96-33998 and 96-63255].
The inventions have established a method of measuring the reverse transcriptase activity of HBV polymerase in vitro. The fundamental principle is the same as the ELISA method, and after reacting the substrate with biotin- and DIG-modified nucleotide, a method of recognizing the polymerized substrate as anti-DIG antibody with peroxidase was used. […] and 20 μ of test compound were mixed and reacted at 14~30° C. for 18~24 hours. Then, the inhibitory effect of test compound against reverse trascriptase activity in the HBV polymerase was examined, compared with the results of control tests without the test compound.

[2] = molecular target: T2, HIV reverse transcriptase (HIV-RT) (Human immunodeficiency virus type 1 group M subtype B, UniProt P04585); assay: in vitro inhibition test against HIV reverse transcriptase; assay type: biochemical, HIV (AIDS virus); settings: read-out: Inhibitory effect of HIV-RT; for inhibition at 0.1 µg/mL: 0.1 μg/ml; for inhibition at 1 µg/mL: 1 μg/ml
T2 construct: purchased Boehringer Mannheim
Experimental: Experiment 3: The in vitro inhibition test against HIV reverse transcriptase
The inhibitory activity in vitro was measured using a non-radioactive reverse transcriptase assay Kit (Boehringer Mannheim).
At first, 20 μl(40 ng) HIV-RT was added to the wells coated with streptavidin and with the addition of 20 μl, reaction mixture containing template/primer hybrid poly(A)/oligo(dT)15 and DIG-(digoxigenin)-dUTP, biotin-dUTP and TTP, 20 μl test compound was added and reacted at 37° C. for 1 hour. The control without test compound was used for the comparison of related activity. Since DNA containing nucleotide labeled with digoxigenin and biotine was prepared by the action of HIV-RT, it was combined with streptavidin coated at the bottom of the wells. After the reaction was completed, remaining impurities were removed by washing each well with 20 μl buffer solution (pH 7.0) for 30 seconds 5 times and with the addition of 200 μl anti-DIG-POD antibody, the mixture was reacted at 37° C. for 1 hour. For the removal of remaining impurities again, the reacting solution was washed with a buffer solution and with the addition of 200μl ABTS™ each, a substrate of POD(peroxidase), the solution was reacted at room temperature for 30 minutes. The absorbance was read by ELISA reader at 405 nm for the assay of reverse transcriptase activity and its inhibition activity.

T1 sequence (P03156 whole entry): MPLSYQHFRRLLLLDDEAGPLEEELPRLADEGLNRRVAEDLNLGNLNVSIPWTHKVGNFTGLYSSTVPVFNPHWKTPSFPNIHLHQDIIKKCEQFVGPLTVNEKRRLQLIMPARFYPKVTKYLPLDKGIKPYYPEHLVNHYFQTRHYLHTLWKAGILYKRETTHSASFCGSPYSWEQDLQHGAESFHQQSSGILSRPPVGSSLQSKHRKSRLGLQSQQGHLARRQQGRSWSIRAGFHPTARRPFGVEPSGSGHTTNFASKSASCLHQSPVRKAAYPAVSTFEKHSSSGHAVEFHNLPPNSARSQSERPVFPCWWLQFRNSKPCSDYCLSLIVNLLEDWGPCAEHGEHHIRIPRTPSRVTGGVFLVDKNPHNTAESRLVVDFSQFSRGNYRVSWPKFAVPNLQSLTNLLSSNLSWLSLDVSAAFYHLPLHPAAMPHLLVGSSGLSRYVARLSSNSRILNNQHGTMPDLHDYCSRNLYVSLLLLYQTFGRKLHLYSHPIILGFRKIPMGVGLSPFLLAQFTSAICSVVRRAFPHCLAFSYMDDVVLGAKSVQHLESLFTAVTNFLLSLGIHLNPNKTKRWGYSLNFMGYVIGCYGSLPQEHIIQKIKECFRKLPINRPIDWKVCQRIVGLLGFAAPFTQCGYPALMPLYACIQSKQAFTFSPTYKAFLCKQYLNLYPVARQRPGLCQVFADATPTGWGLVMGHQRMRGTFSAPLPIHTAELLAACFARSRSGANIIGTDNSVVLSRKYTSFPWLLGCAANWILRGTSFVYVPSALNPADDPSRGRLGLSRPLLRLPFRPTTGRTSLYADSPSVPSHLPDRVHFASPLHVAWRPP

Structure (SMILES)	inhibition at 0.1 µg/mL [1] [%]	inhibition at 1 µg/mL [1] [%]	inhibition at 0.1 µg/mL [2] [%]	inhibition at 1 µg/mL [2] [%]
CC(C)Nc1cccnc1N1CCN(C(=O)c2ccc(C(=O)NCCCO)cc2)CC1 [Compound No. 2, 1-[N-(3-Hydroxypropyl)carbamoyl]-4-[1-[3-(isopropylamino)-2-pyridyl]piperazin-4-yl-carbonyl]benzene]	34	42	35	40
CC(C)Nc1cccnc1N1CCN(C(=O)c2ccc(C(=O)N(C)CCO)cc2)CC1 [Compound No. 5, 1-[N-(2-Hydroxyethyl)-N-methylcarbamoyl]-4-[1-[3-(isopropylamino)-2-pyridyl]piperazin-4-yl-carbonyl]benzene]	40	48	43	71
CCCN(CCO)C(=O)c1ccc(C(=O)N2CCN(c3ncccc3NC(C)C)CC2)cc1 [Compound No. 7, 1-[N-(2-Hydroxyethyl)-N-propylcarbamoyl]-4-[1-[3-(isopropylamino)-2-pyridyl]piperazin-4-yl-carbonyl]benzene]	–	–	21	60
CC(C)Nc1cccnc1N1CCN(C(=O)c2ccc(C(=O)N(CCO)c3ccccc3)cc2)CC1 [Compound No. 11, 1-[N-(2-Hydroxyethyl)-N-phenylcarbamoyl]-4-[1-[3-(isopropylamino)-2-pyridyl]piperazin-4-yl-carbonyl]benzene]	20	76	43	50
CCN(CC)C(=O)c1ccc(C(=O)N2CCN(c3ncccc3NC(C)C)CC2)cc1 [Compound No. 13, 1-[N,N-Diethylcarbamoyl]-4-[1-[3-(isopropylamino)-2-pyridyl]piperazin-4-yl-carbonyl]benzene]	55	70	–	–
CC(C)Nc1cccnc1N1CCN(C(=O)c2ccc(C(=O)N(C(C)C)C(C)C)cc2)CC1 [Compound No. 14, 1-[N,N-Bis(1-methylethyl)carbamoyl]-4-[1-[3-(isopropylamino)-2-pyridyl]piperazin-4-yl-carbonyl]benzene]	–	–	52	59
CC(O)CN(CC(C)O)C(=O)c1ccc(C(=O)N2CCN(c3ncccc3NC(C)C)CC2)cc1 (stereo not shown) [Compound No. 16, 1-[N,N-Bis(2-hydroxypropyl)carbamoyl]-4-[1-[3-(isopropylamino)-2-pyridyl]piperazin-4-yl-carbonyl]benzene]	45	78	52	65
CC(C)Nc1cccnc1N1CCN(C(=O)c2ccc(C(=O)NCCOCCO)cc2)CC1 [Compound No. 17, 1-[N-[2-(2-Hydroxyethoxy)ethyl]carbamoyl]-4-[1-[3-(isopropylamino)-2-pyridyl]piperazin-4-yl-carbonyl]benzene]	–	–	35	53
CCNc1cccnc1N1CCN(C(=O)c2ccc(C(=O)N(CC)CCO)cc2)CC1 [Compound No. 18, 1-[N-Ethyl-N-(2-hydroxyethyl)carbamoyl]-4-[1-[3-(ethylamino)-2-pyridyl]piperazin-4-yl-carbonyl]benzene]	28	63	–	–
CC(C)Nc1cccnc1N1CCN(C(=O)c2ccc(C(=O)N3CCN(C)CC3)cc2)CC1 [Compound No. 20, 1-[4-[1-[3-(Isopropylamino)-2-pyridyl]piperazin-4-yl-carbonyl]benzoyl]-4-methylpiperazine]	43	58	–	–
CCN1CCN(C(=O)c2ccc(C(=O)N3CCN(c4ncccc4NC(C)C)CC3)cc2)CC1 [Compound No. 21, 4-Ethyl-1-[4-[1-[3-(isopropylamino)-2-pyridyl]piperazin-4-yl-arbonyl]benzoyl]piperazine]	–	–	20	64
CC(C)Nc1cccnc1N1CCN(C(=O)c2ccc(C(=O)N3CCN(CCOCCO)CC3)cc2)CC1 [Compound No. 32, 4-[2-(2-Hydroxyethoxy)ethyl]-1-[4-[1-[3-(isopropylamino)-2-pyridyl]piperazin-4-yl-carbonyl]benzoyl]piperazine]	40	71	27	58
CCNc1cccnc1N1CCN(C(=O)c2ccc(C(=O)N3CCN(CCO)CC3)cc2)CC1 [Compound No. 33, 1-[4-[1-[3-(Ethylamino)-2-pyridyl]piperazin-4-yl-carbonyl]benzoyl]-4-(2-hydroxyethyl)piperazine]	37	69	–	–
CC(C)Nc1cccnc1N1CCN(C(=O)c2ccc(C(=O)NC(C)(C)CO)cc2)CC1 [Compound No. 34, 1-[N-(1,1-Dimethyl-2-hydroxyethyl)carbamoyl]-4-[1-[3-(isopropylamino)-2-pyridyl]piperazin-4-yl-carbonyl]benzene]	41	53	43	51
CC(C)Nc1cccnc1N1CCN(C(=O)c2ccc(C(=O)N[C@@H](C)CO)cc2)CC1 [Compound No. 35, 1-[N-[(1S)-2-Hydroxy-1-methylethyl]carbamoyl]-4-[1-[3-(isopropylamino)-2-pyridyl]piperazin-4-yl-carbonyl]benzene]	62	82	–	–
CC(C)Nc1cccnc1N1CCN(C(=O)c2ccc(C(=O)N[C@H](CO)C(C)C)cc2)CC1 [Compound No. 38, 1-[N-[(1S)-2-Hydroxy-1-(1-methylethyl)ethyl]carbamoyl]-4-[1-[3-(isopropylamino)-2-pyridyl]piperazin-4-yl-carbonyl]benzene]	50	67	20	78
CC(C)Nc1cccnc1N1CCN(C(=O)c2ccc(C(=O)N[C@@H](CO)C(C)C)cc2)CC1 [Compound No. 39, 1-[N-[(1R)-2-Hydroxy-1-(1-methylethyl)ethyl]carbamoyl]-4-[1-[3-(isopropylamino)-2-pyridyl]piperazin-4-yl-carbonyl]benzene]	30	78	25	75
CC(C)Nc1cccnc1N1CCN(C(=O)c2ccc(C(=O)N[C@H](CO)CC3CCCCC3)cc2)CC1 [Compound No. 47, 1-[N-[(1S)-1-(Cyclohexylmethyl)-2-hydroxyethyl]carbamoyl]-4-[1-[3-(isopropylamino)-2-pyridyl]piperazin-4-yl-carbonyl]benzene]	–	–	43	54
CC(C)Nc1cccnc1N1CCN(C(=O)c2ccc(C(=O)N[C@H](CO)c3ccccc3)cc2)CC1 [Compound No. 48, 1-[N-[(1S)-2-Hydroxy-1-phenylethyl]carbamoyl]-4-[1-[3-(isopropylamino)-2-pyridyl]piperazin-4-yl-carbonyl]benzene]	61	80	46	51
CC(C)Nc1cccnc1N1CCN(C(=O)c2ccc(C(=O)NC[C@H](C)O)cc2)CC1 [Compound No. 56, 1-[N-[(2S)-2-Hydroxypropyl]carbamoyl]-4-[1-[3-(isopropylamino)-2-pyridyl]piperazin-4-yl-carbonyl]benzene]	58	76	–	–
CC(C)Nc1cccnc1N1CCN(C(=O)c2ccc(C(=O)NCC3CCCO3)cc2)CC1 (stereo not shown) [Compound No. 72, 4-[1-[3-(Isopropylamino)-2-pyridyl]piperazin-4-yl-carbonyl]-1-[N-[(tetrahydrofuran-2-yl)methyl]carbamoyl]benzene]	51	63	–	–
CC(C)Nc1cccnc1N1CCN(C(=O)c2ccc(C(=O)N3CCSCC3)cc2)CC1 [Compound No. 77, 4-[1-[3-(Isopropylamino)-2-pyridyl]piperazin-4-yl-carbonyl]-1-(thiomorpholin-4-yl-carbonyl)benzene]	–	–	28	40
CC(C)Nc1cccnc1N1CCN(C(=O)c2ccc(C(=O)NCCN3CCCCC3)cc2)CC1 [Compound No. 81, 4-[1-[3-(Isopropylamino)-2-pyridyl]piperazin-4-yl-carbonyl]-1-[N-[2-(piperidin-1-yl)ethyl]carbamoyl]benzene]	–	–	32	60
